# Assays:
# [1] = target: T1, M2−K 0-20 hybrid protein (UniProt P08172+Q61743); assay: TEVC recordings from xenopus oocytes expressing M2−K 0-20; type: cell-based, human M2, mouse Kir6.2
# T1 construct: expressed in transfected cells; host or cells: Xenopus oocytes injected with cRNA
# T1 sequence (P08172+Q61743 with tags, fused parts or gaps): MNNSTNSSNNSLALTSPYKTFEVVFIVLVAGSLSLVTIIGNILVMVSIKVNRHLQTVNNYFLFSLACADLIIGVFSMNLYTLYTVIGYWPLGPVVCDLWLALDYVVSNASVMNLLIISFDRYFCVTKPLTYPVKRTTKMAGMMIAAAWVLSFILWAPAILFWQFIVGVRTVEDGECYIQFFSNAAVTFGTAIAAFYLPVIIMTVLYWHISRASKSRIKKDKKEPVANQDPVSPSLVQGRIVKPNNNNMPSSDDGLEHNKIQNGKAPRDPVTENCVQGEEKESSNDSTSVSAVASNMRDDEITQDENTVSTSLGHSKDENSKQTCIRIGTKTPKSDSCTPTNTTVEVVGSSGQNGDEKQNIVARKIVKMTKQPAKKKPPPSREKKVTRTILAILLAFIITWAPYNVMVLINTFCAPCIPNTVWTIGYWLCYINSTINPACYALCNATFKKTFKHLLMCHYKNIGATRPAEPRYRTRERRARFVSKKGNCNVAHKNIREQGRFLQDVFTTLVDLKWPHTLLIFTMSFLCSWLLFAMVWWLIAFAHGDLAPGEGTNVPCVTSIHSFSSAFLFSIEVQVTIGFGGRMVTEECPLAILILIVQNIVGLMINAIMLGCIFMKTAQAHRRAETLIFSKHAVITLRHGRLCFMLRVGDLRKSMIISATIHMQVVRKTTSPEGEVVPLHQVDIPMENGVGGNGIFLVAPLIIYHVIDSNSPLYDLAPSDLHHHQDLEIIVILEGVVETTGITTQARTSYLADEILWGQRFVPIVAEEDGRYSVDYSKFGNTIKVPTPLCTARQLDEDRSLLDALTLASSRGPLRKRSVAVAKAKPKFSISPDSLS
# Experimental: (§1) Whole-cell currents were measured using two-electrode voltage clamp (TEVC). Microelectrodes were filled with 3 M KCl and oocytes were bathed in a solution having (in mM): 91 KCl, 1.8 CaCl2, 1 MgCl2, 5 HEPES (pH 7.4) and 0.3 niflumic acid to block endogenous chloride current.
# (§2) The TEVC voltage protocol consisted of 500-ms steps to −50, 0 and +50 mV—during which current was measured—repeated every 5 s, the holding potential being 0 mV.
# (§3) Average values are presented as mean±s.e.m. Non-linear least-square curve fitting to the data points obtained at various concentrations of activating or inhibiting ligands was done using a standard Hill equation: […]
# (§4) Ba^2+ was used as a generic K^+ channel blocker. Percent changes in current were calculated with respect to the baseline extrapolated from measurements of Ba^2+-sensitive currents before and after agonist application.
# [2] = target: T2, M2−K 0-25 hybrid protein (UniProt P08172+Q61743); type: cell-based, human M2, mouse Kir6.2
# T2 construct: expressed in transfected cells; host or cells: Xenopus oocytes injected with cRNA (whole-cell TEVC, or outside-out patches excised from them)
# T2 sequence (P08172+Q61743 with tags, fused parts or gaps): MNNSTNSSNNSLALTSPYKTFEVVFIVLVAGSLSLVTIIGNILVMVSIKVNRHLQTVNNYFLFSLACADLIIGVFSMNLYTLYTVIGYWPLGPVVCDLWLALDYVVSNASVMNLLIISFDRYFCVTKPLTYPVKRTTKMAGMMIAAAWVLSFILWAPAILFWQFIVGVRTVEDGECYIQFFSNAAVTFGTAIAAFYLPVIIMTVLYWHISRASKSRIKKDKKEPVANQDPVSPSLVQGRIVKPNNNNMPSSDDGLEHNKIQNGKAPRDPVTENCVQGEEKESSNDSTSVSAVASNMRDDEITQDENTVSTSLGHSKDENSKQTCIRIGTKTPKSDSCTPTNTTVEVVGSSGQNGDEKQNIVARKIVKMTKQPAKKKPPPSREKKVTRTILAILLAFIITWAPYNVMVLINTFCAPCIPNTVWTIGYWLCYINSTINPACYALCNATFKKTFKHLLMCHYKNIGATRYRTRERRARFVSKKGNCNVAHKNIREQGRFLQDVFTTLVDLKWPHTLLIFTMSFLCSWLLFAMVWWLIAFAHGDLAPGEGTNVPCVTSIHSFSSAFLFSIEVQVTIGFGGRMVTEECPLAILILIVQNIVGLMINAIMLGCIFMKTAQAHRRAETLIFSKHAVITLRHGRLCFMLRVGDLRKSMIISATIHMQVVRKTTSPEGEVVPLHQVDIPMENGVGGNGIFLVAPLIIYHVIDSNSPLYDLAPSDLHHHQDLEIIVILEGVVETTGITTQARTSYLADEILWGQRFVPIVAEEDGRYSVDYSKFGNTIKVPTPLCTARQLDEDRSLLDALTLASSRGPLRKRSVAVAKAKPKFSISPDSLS
# Experimental: Xenopus oocytes defoliculated by collagenase treatment were microinjected with 50 nl of water containing one or a mixture of the following quantities of cRNA:
# Oocytes were incubated in individual wells in Barth's solution (KCl 1 mM, MgSO4 0.82 mM, NaCl 88 mM, NaHCO3 2.4 mM, CaCl2 0.41 mM, Ca(NO3)2 0.3 mM, Hepes 16 mM, pH 7.4) supplemented with 100 U·ml^−1 penicillin, 100 μg ml^−1 streptomycin and […] gentamycin, for at least 48 hrs at 19° C. before characterization.
# as §1
# Unless otherwise specified, the concentration of M2 ligands was 5 μM.
# as §2, §3
# Ba^2+ was used as a generic K^+ channel blocker. Percent changes in current were calculated with respect to the baseline extrapolated from measurements of Ba^2+-sensitive currents before and after agonist application. This method emphasizes reversibility and provides an underestimate of the true effects. For dose-response data, which were acquired by applying sequentially increasing concentrations of modulator to the same patch or oocyte, changes in current could only be measured with respect to the current before application, yielding somewhat larger values.
# [3] = tested on: CCR2 chemokine receptor fused to Kir6.2 deleted in its N-terminus part; assay: Electric flux of CCR2-Kir6.2 fusion protein; type: cell-based; conditions: final concentration from about 0.3 μM to about 2 μM
# CCR2 chemokine receptor fused to Kir6.2 deleted in its N-terminus part, sequence (P41597 1-313 limits assumed): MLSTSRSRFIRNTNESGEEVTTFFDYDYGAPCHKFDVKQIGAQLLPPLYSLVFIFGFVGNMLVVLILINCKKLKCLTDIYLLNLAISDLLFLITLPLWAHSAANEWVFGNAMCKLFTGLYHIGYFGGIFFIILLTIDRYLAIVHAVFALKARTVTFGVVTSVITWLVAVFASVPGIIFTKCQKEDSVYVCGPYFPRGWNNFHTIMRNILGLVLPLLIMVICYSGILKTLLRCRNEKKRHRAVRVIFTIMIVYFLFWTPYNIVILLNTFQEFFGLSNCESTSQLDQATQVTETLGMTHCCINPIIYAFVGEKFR
# [4] = target: D2-K 0-25 hybrid protein (UniProt P14416+Q61743); conditions: sulpiride 5 μM during quinpirole 5 μM
# D2-K 0-25 hybrid protein, sequence (P14416+Q61743 fused): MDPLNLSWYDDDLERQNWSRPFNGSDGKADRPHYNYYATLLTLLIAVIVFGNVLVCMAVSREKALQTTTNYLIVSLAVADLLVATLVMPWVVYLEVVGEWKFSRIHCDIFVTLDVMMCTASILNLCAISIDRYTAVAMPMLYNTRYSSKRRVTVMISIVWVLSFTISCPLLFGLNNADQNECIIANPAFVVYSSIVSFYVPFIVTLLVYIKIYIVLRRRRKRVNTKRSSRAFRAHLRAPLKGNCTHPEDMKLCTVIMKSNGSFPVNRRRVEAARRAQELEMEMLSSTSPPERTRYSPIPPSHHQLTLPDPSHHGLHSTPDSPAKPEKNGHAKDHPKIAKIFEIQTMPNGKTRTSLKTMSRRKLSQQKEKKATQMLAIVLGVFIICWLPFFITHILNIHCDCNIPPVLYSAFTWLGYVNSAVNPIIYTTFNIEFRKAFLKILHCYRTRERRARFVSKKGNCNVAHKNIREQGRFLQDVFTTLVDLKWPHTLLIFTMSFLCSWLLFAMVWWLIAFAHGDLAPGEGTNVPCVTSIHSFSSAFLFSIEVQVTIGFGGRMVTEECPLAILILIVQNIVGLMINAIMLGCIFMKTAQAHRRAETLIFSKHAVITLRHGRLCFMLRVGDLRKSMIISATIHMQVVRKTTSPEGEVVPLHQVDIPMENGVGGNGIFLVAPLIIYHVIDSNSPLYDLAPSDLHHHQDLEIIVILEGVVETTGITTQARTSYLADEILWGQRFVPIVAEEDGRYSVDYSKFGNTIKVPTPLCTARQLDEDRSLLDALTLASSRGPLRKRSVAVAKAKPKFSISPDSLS
# Experimental: as §1, §2, §3, §4
molecule,measurement,setting,value
"C[N+](C)(C)CCOC(N)=O [CCh, carbachol]",change of current induced by CCh (dose response),[1]; increasing CCh concentrations,"stimulated, in a dose-dependent manner"
same,change of current induced by CCh (dose response),"[2]; increasing CCh concentrations, M2−K 0-25","stimulated, in a dose-dependent manner"
CCL2: CCR2 agonist: CCL2 or MCP1,generation of electric flux after stimulating the receptor,[3],generation of an electric flux
CN1[C@@H]2CC[C@H]1C[C@@H](OC(=O)C(CO)c1ccccc1)C2 (stereo partly shown) [atropine],effect of antagonist on ACh-induced current,[1]; atropine 1 μM with ACh 5 μM,inhibits the ACh-induced current
same,effect of antagonist on ACh-induced current,[2],inhibits the ACh-induced current
NCCc1ccc(O)c(O)c1 [Dopamine],sensitivity of M2−K 0-25 to Dopa,"[2]; Dopa 5 μM, TEVC",insensitive
CCN1CCCC1CNC(=O)c1cc(S(N)(=O)=O)ccc1OC (stereo not shown) [sulpiride],effect of antagonist on quinpirole-induced decrease in current,[4],reversed

# From patent US20110159520A1, “HYBRID PROTEINS COMPRISING MEMBRANE RECEPTOR AND ION CHANNEL, AND THEIR USE AS BIOSENSORS” (UNIVERSITE JOSEPH FOURIER, priority 2008, published 2011)
